Results as given in ChEMBL document CHEMBL4325927, “Synthesis, Anti-HBV, and Anti-HIV Activities of 3'-Halogenated Bis(hydroxymethyl)-cyclopentenyladenines” (ACS Med Chem Lett, 2018).

Columns and labels:
[1] = Cytotoxicity against human HepG2.2.15 cells after 7 days by MTT assay; assay type: cell-based, HepG2 2.2.15
[2] = tested on: HBV genotype D; test: Antiviral activity against HBV genotype D infected in human HepG2.2.15 cells assessed as reduction in viral DNA level after 7 days by RT-PCR assay; assay type: functional, organism-based; conditions: Hepatitis B virus, HepG2.2.15, 168 h
[3] = Selectivity index, ratio of CC50 for cytotoxicity against human HepG2.2.15 cells to EC50 for HBV genotype D infected in human HepG2.2.15 cells; assay type: toxicity, cell-based; conditions: read-out: Ratio CC50/EC50
[4] = Cytotoxicity against human MT2 cells after 7 days by MTT assay; assay type: cell-based
[5] = tested on: Human immunodeficiency virus 1; test: Antiviral activity against HIV-1 3B infected in human MT2 cells assessed as inhibition of virus-induced cytopathic effect after 7 days by MTT assay; assay type: functional, organism-based; conditions: Human immunodeficiency virus 1, 3B, MT2, 168 h

Row | Structure (SMILES) | EC50 [2] [µM] | CC50 at 168 h [1] [µM] | selectivity ratio [3] | CC50 at 168 h [4] [µM] | EC50 [5] [µM]
1 | Nc1ncnc2c1ncn2[C@H]1C=C(Br)[C@H](CO)[C@H]1CO | 0.029 | > 100 | – | > 100 | > 100
2 | Nc1ncnc2c1ncn2[C@H]1C=C(Cl)[C@H](CO)[C@H]1CO | 0.146 | – | – | > 100 | > 100
3 | Nc1ncnc2c1ncn2[C@H]1C=C(I)[C@H](CO)[C@H]1CO | 0.436 | – | – | > 100 | > 100
4 | Nc1ncnc2c1ncn2[C@@H]1C=C[C@H](CO)[C@H]1CO | 0.0457 | > 100 | – | 153 | 0.77

These reach a lower EC50 [2]. Values come first.

Row | EC50 [2] [µM] | Structure (SMILES) | CC50 at 168 h [1] [µM] | selectivity ratio [3] | CC50 at 168 h [4] [µM] | EC50 [5] [µM]
5 | 0.019 | Nc1ncnc2c1ncn2[C@H]1C=C(F)[C@H](CO)[C@H]1CO | > 100 | 5260 | > 100 | > 100
6 | 0.0038 | C=C1[C@H](CO)[C@@H](O)C[C@@H]1n1cnc2c(=O)[nH]c(N)nc21 [ENTECAVIR] | 52.9 | – | – | –
